This assay deals with c-SRC (h) (Homo sapiens, UniProt P12931). Kind of assay: Src Kinase Assay (33P-ATP filter-binding, Cdc2 peptide substrate). Type of assay: biochemical. The note with it: compound at 10 μM; c-SRC (h) 5-10 mU, 40 minutes at room temperature. As to the method:
This example illustrated Src Kinase Assays. Briefly, in a final reaction volume of 25 μL, c-SRC (h) (5-10 mU) is incubated with 8 mM MOPS pH 7.0, 0.2 mM EDTA, 250 μM KVEKIGEGTYGVVYK (Cdc2 peptide), 10 mM MgAcetate and [g-33P-ATP] (specific activity approx. 500 cpm/pmol, concentration as required). The reaction is initiated by the addition of the MgATP mix. After incubation for 40 minutes at room temperature, the reaction is stopped by the addition of 5 μL of a 3% phosphoric acid solution. 10 μL of the reaction is then spotted onto a P30 filtermat and washed three times for 5 minutes in 75 mM phosphoric acid and once in methanol prior to drying and scintillation counting.
Chain of c-SRC (h) (P12931 whole entry): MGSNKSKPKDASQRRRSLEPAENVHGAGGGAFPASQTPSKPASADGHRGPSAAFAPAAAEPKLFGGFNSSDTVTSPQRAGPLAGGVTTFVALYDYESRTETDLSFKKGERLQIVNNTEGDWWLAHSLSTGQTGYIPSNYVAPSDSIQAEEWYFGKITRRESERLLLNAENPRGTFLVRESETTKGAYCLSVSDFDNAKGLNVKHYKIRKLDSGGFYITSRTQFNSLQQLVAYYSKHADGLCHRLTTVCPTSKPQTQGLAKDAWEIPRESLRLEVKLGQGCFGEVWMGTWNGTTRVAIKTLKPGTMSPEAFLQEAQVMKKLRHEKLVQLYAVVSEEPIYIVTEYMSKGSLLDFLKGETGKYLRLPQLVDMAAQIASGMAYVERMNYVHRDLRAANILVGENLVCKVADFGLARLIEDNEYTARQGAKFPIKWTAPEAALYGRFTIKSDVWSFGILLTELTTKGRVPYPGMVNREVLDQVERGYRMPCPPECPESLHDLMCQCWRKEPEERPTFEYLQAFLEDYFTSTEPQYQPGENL
A word on the inhibition: it is the change of the read-out against control, counted positive when it falls. The low end stands for little suppression, the high end for strong suppression. The molecule `Cc1nc(Nc2ncc(C(=O)Nc3c(C)cccc3Cl)s2)nc(N2CCN(CCO)CC2)n1` [Example 5] displayed an inhibition at 10 µM of over 90%.
Molecule `Cc1nc(Nc2ncc(C(=O)Nc3c(C)cccc3Cl)s2)nc(N2CCN(C)CC2)n1` [Example 7] displayed an inhibition at 10 µM of over 90%.
To `Cc1nc(Nc2ncc(C(=O)Nc3c(C)cccc3Cl)s2)nc(N2CCN(Cc3ccncc3)CC2)n1` [Example 10] belongs over 90%; to `Cc1nc(Nc2ncc(C(=O)Nc3c(C)cccc3Cl)s2)nc(N2CCC(CO)CC2)n1` [Example 11], over 90%.
Regarding `Cc1nc(Nc2ncc(C(=O)Nc3c(C)cccc3Cl)s2)nc(N2CCNCC2)n1` [Example 13], the inhibition at 10 µM is over 90%.
`Cc1nc(Nc2ncc(C(=O)Nc3c(C)cccc3Cl)s2)nc(N2CCN(CCC#N)CC2)n1` [Example 14] yielded an inhibition at 10 µM of over 90%.
The molecule `Cc1nc(Nc2ncc(C(=O)Nc3c(C)cccc3Cl)s2)nc(N2CCN(c3ccccc3)CC2)n1` [Example 17] returned an inhibition at 10 µM of over 90%.
As to `Cc1nc(Nc2ncc(C(=O)Nc3c(C)cccc3Cl)s2)nc(N2CCN(c3cccc(C(F)(F)F)c3)CC2)n1` [Example 18], the inhibition at 10 µM was over 90%.
Regarding `Cc1nc(Nc2ncc(C(=O)Nc3c(C)cccc3Cl)s2)nc(N2CCNC(=O)C2)n1` [Example 19], the inhibition at 10 µM is over 90%.
`Cc1nc(NCCCn2ccnc2)nc(Nc2ncc(C(=O)Nc3c(C)cccc3Cl)s2)n1` [Example 20] came in with an inhibition at 10 µM of over 90%.
The figure for `CCc1nc(Nc2ncc(C(=O)Nc3c(C)cccc3Cl)s2)nc(N2CCN(CCO)CC2)n1` [Example 23] is over 90%; for `CCc1nc(Nc2ncc(C(=O)Nc3c(C)cccc3Cl)s2)nc(N2CCN(c3ccncc3)CC2)n1` [Example 24] it is over 90%; for `CCc1nc(Nc2ncc(C(=O)Nc3c(C)cccc3Cl)s2)nc(N2CCOCC2)n1` [Example 25] it is over 90%.
The figure for `CCc1nc(NCCN(C)C)nc(Nc2ncc(C(=O)Nc3c(C)cccc3Cl)s2)n1` [Example 26] is over 90%; for `CCc1nc(NCCO)nc(Nc2ncc(C(=O)Nc3c(C)cccc3Cl)s2)n1` [Example 27] it is over 90%; for `CCc1nc(NCCCN2CCOCC2)nc(Nc2ncc(C(=O)Nc3c(C)cccc3Cl)s2)n1` [Example 28] it is over 90%.
Consider `Cc1cccc(Cl)c1NC(=O)c1cnc(Nc2nc(-c3ccccc3)nc(N3CCN(CCO)CC3)n2)s1` [Example 31], for which the inhibition at 10 µM is over 90%.
As for `Cc1cccc(Cl)c1NC(=O)c1cnc(Nc2nc(CC(C)C)nc(N3CCN(CCO)CC3)n2)s1` [Example 34], the inhibition at 10 µM is over 90%.
In turn, `Cc1nc(Nc2ncc(C(=O)Nc3c(C)cccc3Cl)o2)nc(N2CCNCC2)n1` [Example 38] showed an inhibition at 10 µM of over 90%.
In turn, `CCc1nc(Nc2ncc(C(=O)Nc3c(C)cccc3Cl)o2)nc(N2CCN(CCO)CC2)n1` [Example 40] gave an inhibition at 10 µM of over 90%.
In turn, `CCc1nc(Nc2nnc(C(=O)Nc3c(C)cccc3Cl)o2)nc(N2CCN(CCO)CC2)n1` [Example 52] yielded an inhibition at 10 µM of under 50%.
Turning to `CCc1nc(Nc2ncc(C(=O)Nc3c(C)cccc3Cl)n2C)nc(N2CCN(C)CC2)n1` [Example 59], the inhibition at 10 µM is over 90%.
Consider `CCc1nc(NCCN(C)C)nc(Nc2ncc(C(=O)NC3CC3)s2)n1` [Example 63], for which the inhibition at 10 µM is under 50%.
`CCc1nc(NCCN(C)C)nc(Nc2ncc(C(=O)NC(C)C)s2)n1` [Example 67]: the inhibition at 10 µM is under 50%.
As to `CCc1nc(NCCN(C)C)nc(Nc2ncc(C(=O)Nc3c(C)cccc3C)s2)n1` [Example 71], the inhibition at 10 µM is over 90%.
In turn, `CCc1nc(NCCN(C)C)nc(Nc2ncc(C(=O)Nc3c(C)cc(C)cc3C)s2)n1` [Example 75] gave an inhibition at 10 µM of over 90%.
To `CCc1nc(NCCN(C)C)nc(Nc2ncc(C(=O)Nc3ccccc3)s2)n1` [Example 79] belongs 50 to 90%; to `CN1CCN(c2ncnc(Nc3ncc(CC(=O)Nc4cccc(F)c4)s3)n2)CC1` [Example 88], under 50%.
The figure for `O=C(Cc1cnc(Nc2ncnc(N3CCCCC3)n2)s1)Nc1cccc(F)c1` [Example 89] is under 50%; for `Cc1cccc(Cl)c1NC(=O)Cc1cnc(Nc2ncnc(N3CCN(C)CC3)n2)s1` [Example 92] it is under 50%; for `CCc1nc(Nc2ncc(CC(=O)Nc3c(C)cccc3Cl)s2)nc(N2CCN(CCO)CC2)n1` [Example 93] it is under 50%.
In turn, `CCc1nc(NCCN(CC)CC)nc(Nc2ncc(C(=O)Nc3c(C)cccc3Cl)s2)n1` [Example 94] registered an inhibition at 10 µM of over 90%.
In the case of `CN1CCN(c2ncnc(Nc3cc(CC(=O)Nc4cccc(F)c4)[nH]n3)n2)CC1` [Example 104], the inhibition at 10 µM was under 50%.
Molecule `CN(C)CCCOc1ncnc(Nc2cc(CC(=O)Nc3cccc(F)c3)[nH]n2)n1` [Example 105] yielded an inhibition at 10 µM of under 50%.
Take `Cc1cccc(Cl)c1NC(=O)Cc1cc(Nc2ncnc(N3CCN(C)CC3)n2)n[nH]1` [Example 106]: the inhibition at 10 µM is under 50%.
In turn, `Cc1cccc(Cl)c1NC(=O)Cc1cc(Nc2ncnc(OCCCN(C)C)n2)n[nH]1` [Example 107] displayed an inhibition at 10 µM of under 50%.
Take `CN1CCN(c2ncnc(Nc3cc(CC(=O)NCc4ccc(F)cc4)[nH]n3)n2)CC1` [Example 108]: the inhibition at 10 µM was under 50%.
In turn, `CN(C)CCCOc1ncnc(Nc2cc(CC(=O)NCc3ccc(F)cc3)[nH]n2)n1` [Example 109] registered an inhibition at 10 µM of under 50%.
For the molecule `CN(C)CCN(C)c1ncnc(Nc2cc(CC(=O)Nc3cccc(F)c3)[nH]n2)n1` [Example 110], the inhibition at 10 µM was under 50%.
`COCC(C)Nc1ncnc(Nc2cc(CC(=O)Nc3cccc(F)c3)[nH]n2)n1` (centres unmarked) [Example 111] displayed an inhibition at 10 µM of under 50%.
Molecule `O=C(Cc1cc(Nc2ncnc(Nc3ccccc3)n2)n[nH]1)Nc1cccc(F)c1` [Example 113] came in with an inhibition at 10 µM of under 50%.

The record behind these values is patent US20120238576A1, “Triazine Derivatives and their Therapeutical Applications” (CALIFORNIA CAPITAL EQUITY, LLC, priority 2009, published 2012).
